Reference: patent US20160298082A1, “METHOD FOR OBTAINING IMMUNO-STIMULATORY DENDRITIC CELLS” (TRANSIMMUNE AG, priority 2013, published 2016)
“Also recorded” adds a separate entry of the source.

What was measured:
P-selectin = experiment: Surface expression of P-selectin on platelets (platelet activation); type: cell-based, human; conditions: platelets activated with thrombin (positive control)
Description: Monoclonal antibodies for immunophenotyping included CD14 (LPS receptor; monocytes), CD11c (integrin subunit; monocytes and DC), HLA-DR (class II MHC molecule), CD83 (DC marker), CD62p (P-selectin; activated platelets), and CD61 (integrin subunit; platelets). Antibodies were obtained from Beckman Coulter (CD14, CD11c, HLADR, CD83) or Sigma (CD62p, CD61) and used at their pre-determined optimal dilutions. Background staining was established with appropriate isotype controls, and immunofluorescence was analyzed using a FC500 flow cytometer (Beckman Coulter). Two-color membrane staining was performed by adding the pre-determined optimal concentrations of both antibodies directly conjugated to FITC or PE and incubating for 20 min at 4° C., followed by washing to remove unbound antibodies. Combined membrane and cytoplasmic staining was performed following manufacturer's instructions for cell fixation and permeabilization (Intraprep kit, Beckman Coulter).
Upon encountering stimuli such as damaged endothelium or thrombin, platelets become activated and almost instantaneously translocate these intracellular proteins to the plasma membrane (Kaplan et al., 1979, see references). […] To test this hypothesis, surface expression of P-selectin, a well-known marker of platelet activation, was assessed before and after adhesion. […]

monocytes = experiment: Static co-culture of monocytes with platelets; type: cell-based, human; conditions: platelets activated with thrombin; no flow; 18 hours
Procedure: Experiments involving co-cultures of monocytes with additional platelets were performed as described in the Overnight Culture section, with a few necessary modifications. Following Ficoll-Hypaque separation, mononuclear cells were resuspended in 30% AB serum/RMPI to a final concentration of 10×10^6 cells/ml, of which 1 ml was allocated to each well of a 16-well plate. An additional 1 ml of platelets (suspended in RPMI, at 2× the desired final concentration) or RPMI without platelets was then added to each well. To activate platelets, 500 μl containing 2 units of thrombin was added to half the wells, and 500 μl of RPMI was added to the others to balance the volume. Cells were then incubated as described previously.

In the case of thrombin, the “P-selectin mean fluorescence intensity (MFI)” value (P-selectin) is reported as 108.3±23, the “Platelets P-selectin positive” value (P-selectin) is reported as 71±18% and the “DC differentiation of monocytes under static conditions” value (monocytes) is reported as “neither activated nor non-activated platelets were capable of inducting DC differentiation; also recorded: did not cause a discernible difference”.
